Laboratory results published in PubChem BioAssay (NCI).
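Briefly, cells in 96-well plates were exposed to five compound concentrations for 48 h, and endpoints were estimated by linear interpolation. GI50 marks 50% less growth. TGI denotes the concentration required for complete inhibition of growth.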

What was measured:
Experiment in all cases: NCI anticancer screen, dose series, 48 h
SK-MEL-28 melanoma = system: SK-MEL-28 melanoma
HT29 colon = system: HT29 colon
PC-3 prostate = system: PC-3 prostate
UO-31 renal = system: UO-31 renal
HOP-62 NSCLC = system: HOP-62 NSCLC
COLO 205 colon = system: COLO 205 colon
SW-620 colon = system: SW-620 colon
IGROV1 ovarian = system: IGROV1 ovarian
OVCAR-5 ovarian = system: OVCAR-5 ovarian
T-47D breast = system: T-47D breast
HS 578T breast = system: HS 578T breast
OVCAR-3 ovarian = system: OVCAR-3 ovarian
OVCAR-4 ovarian = system: OVCAR-4 ovarian
EKVX NSCLC = system: EKVX NSCLC
M14 melanoma = system: M14 melanoma
MCF7 breast = system: MCF7 breast
MOLT-4 leukemia = system: MOLT-4 leukemia
MALME-3M melanoma = system: MALME-3M melanoma
NCI-H522 lung = system: NCI-H522 lung
K-562 leukemia = system: K-562 leukemia
UACC-257 melanoma = system: UACC-257 melanoma
SF-295 CNS = system: SF-295 CNS
LOX IMVI melanoma = system: LOX IMVI melanoma
MDA-MB-231 breast = system: MDA-MB-231 breast
HCC-2998 colon = system: HCC-2998 colon
KM12 colon = system: KM12 colon
MDA-MB-435 = system: MDA-MB-435
HCT-15 colon = system: HCT-15 colon
HL-60(TB) leukemia = system: HL-60(TB) leukemia
SNB-75 CNS = system: SNB-75 CNS
TK-10 renal = system: TK-10 renal
SK-MEL-2 melanoma = system: SK-MEL-2 melanoma
NCI/ADR-RES ovarian = system: NCI/ADR-RES ovarian
A498 renal = system: A498 renal
HOP-92 NSCLC = system: HOP-92 NSCLC
SF-539 CNS = system: SF-539 CNS
BT-549 breast = system: BT-549 breast
RPMI-8226 leukemia = system: RPMI-8226 leukemia
HCT-116 colon = system: HCT-116 colon
CCRF-CEM leukemia = system: CCRF-CEM leukemia
NCI-H226 lung = system: NCI-H226 lung
ACHN renal = system: ACHN renal
786-0 renal = system: 786-0 renal
UACC-62 melanoma = system: UACC-62 melanoma
NCI-H460 lung = system: NCI-H460 lung
CAKI-1 renal = system: CAKI-1 renal
DU-145 prostate = system: DU-145 prostate
OVCAR-8 ovarian = system: OVCAR-8 ovarian
SN12C renal = system: SN12C renal
A549 NSCLC = system: A549 NSCLC
NCI-H23 lung = system: NCI-H23 lung
SR leukemia = system: SR leukemia
U251 CNS = system: U251 CNS
SF-268 CNS = system: SF-268 CNS
SNB-19 CNS = system: SNB-19 CNS
RXF 393 renal = system: RXF 393 renal
SK-OV-3 ovarian = system: SK-OV-3 ovarian
SK-MEL-5 melanoma = system: SK-MEL-5 melanoma

Q: What does the source list for `Cc1cc(I)cc(CN(C)CCN2CCOCC2)c1O`?
A: GI50 (SK-MEL-28 melanoma): > 78.1 µM; TGI (SK-MEL-28 melanoma): > 100 µM; GI50 (HT29 colon): 33.4 µM; TGI (HT29 colon): > 100 µM; GI50 (PC-3 prostate): 34.9 µM; TGI (PC-3 prostate): > 100 µM; GI50 (UO-31 renal): 45.2 µM; TGI (UO-31 renal): > 100 µM; GI50 (HOP-62 NSCLC): 64.7 µM; TGI (HOP-62 NSCLC): > 100 µM; GI50 (COLO 205 colon): 71.6 µM; TGI (COLO 205 colon): > 100 µM; GI50 (SW-620 colon): 55.2 µM; TGI (SW-620 colon): > 100 µM; GI50 (IGROV1 ovarian): 37.2 µM; TGI (IGROV1 ovarian): > 100 µM; GI50 (OVCAR-5 ovarian): > 100 µM; TGI (OVCAR-5 ovarian): > 100 µM; GI50 (T-47D breast): 27.5 µM; TGI (T-47D breast): > 100 µM; GI50 (HS 578T breast): 23.4 µM; TGI (HS 578T breast): > 72.5 µM; GI50 (OVCAR-3 ovarian): 49.9 µM; TGI (OVCAR-3 ovarian): > 100 µM; GI50 (OVCAR-4 ovarian): 53.2 µM; TGI (OVCAR-4 ovarian): > 100 µM; GI50 (EKVX NSCLC): 47.1 µM; TGI (EKVX NSCLC): > 100 µM; GI50 (M14 melanoma): 79.3 µM; TGI (M14 melanoma): > 100 µM; GI50 (MCF7 breast): 44.1 µM; TGI (MCF7 breast): > 100 µM; GI50 (MOLT-4 leukemia): 35.7 µM; TGI (MOLT-4 leukemia): > 100 µM; GI50 (MALME-3M melanoma): > 78.8 µM; TGI (MALME-3M melanoma): > 100 µM; GI50 (NCI-H522 lung): 79 µM; TGI (NCI-H522 lung): > 100 µM; GI50 (K-562 leukemia): 28.4 µM; TGI (K-562 leukemia): > 100 µM; GI50 (UACC-257 melanoma): 99.5 µM; TGI (UACC-257 melanoma): > 100 µM; GI50 (SF-295 CNS): 29.8 µM; TGI (SF-295 CNS): > 82.3 µM; GI50 (LOX IMVI melanoma): 65 µM; TGI (LOX IMVI melanoma): > 100 µM; GI50 (MDA-MB-231 breast): 97.9 µM; TGI (MDA-MB-231 breast): > 100 µM; GI50 (HCC-2998 colon): > 80.8 µM; TGI (HCC-2998 colon): > 100 µM; GI50 (KM12 colon): 44.5 µM; TGI (KM12 colon): > 100 µM; GI50 (MDA-MB-435): 67.3 µM; TGI (MDA-MB-435): > 100 µM; GI50 (HCT-15 colon): 38.8 µM; TGI (HCT-15 colon): > 100 µM; GI50 (HL-60(TB) leukemia): 25.8 µM; TGI (HL-60(TB) leukemia): 66.6 µM; GI50 (SNB-75 CNS): 53.5 µM; TGI (SNB-75 CNS): > 100 µM; GI50 (TK-10 renal): > 76.8 µM; TGI (TK-10 renal): > 100 µM; GI50 (SK-MEL-2 melanoma): > 100 µM; TGI (SK-MEL-2 melanoma): > 100 µM; GI50 (NCI/ADR-RES ovarian): 59.8 µM; TGI (NCI/ADR-RES ovarian): > 100 µM; GI50 (A498 renal): 43.3 µM; TGI (A498 renal): > 96.3 µM; GI50 (HOP-92 NSCLC): 38 µM; TGI (HOP-92 NSCLC): > 100 µM; GI50 (SF-539 CNS): > 100 µM; TGI (SF-539 CNS): > 100 µM; GI50 (BT-549 breast): 43.7 µM; TGI (BT-549 breast): > 100 µM; GI50 (RPMI-8226 leukemia): 30.2 µM; TGI (RPMI-8226 leukemia): > 100 µM; GI50 (HCT-116 colon): 30.4 µM; TGI (HCT-116 colon): > 100 µM; GI50 (CCRF-CEM leukemia): 0.87 µM; GI50 (NCI-H226 lung): > 76.9 µM; TGI (NCI-H226 lung): > 100 µM; GI50 (ACHN renal): 60.2 µM; TGI (ACHN renal): > 100 µM; GI50 (786-0 renal): > 100 µM; TGI (786-0 renal): > 100 µM; GI50 (UACC-62 melanoma): > 66.1 µM; TGI (UACC-62 melanoma): > 100 µM; GI50 (NCI-H460 lung): 43.4 µM; TGI (NCI-H460 lung): > 100 µM; GI50 (CAKI-1 renal): > 61.4 µM; TGI (CAKI-1 renal): > 100 µM; GI50 (DU-145 prostate): 61 µM; TGI (DU-145 prostate): > 100 µM; GI50 (OVCAR-8 ovarian): 75.1 µM; TGI (OVCAR-8 ovarian): > 100 µM; GI50 (SN12C renal): > 68 µM; TGI (SN12C renal): > 100 µM; GI50 (A549 NSCLC): 54.6 µM; TGI (A549 NSCLC): > 100 µM; GI50 (NCI-H23 lung): 62.7 µM; TGI (NCI-H23 lung): > 100 µM; GI50 (SR leukemia): 12.5 µM; TGI (SR leukemia): 97.7 µM; GI50 (U251 CNS): 49.7 µM; TGI (U251 CNS): > 100 µM; GI50 (SF-268 CNS): 59.5 µM; TGI (SF-268 CNS): > 100 µM; GI50 (SNB-19 CNS): > 87.1 µM; TGI (SNB-19 CNS): > 100 µM; GI50 (RXF 393 renal): > 88 µM; TGI (RXF 393 renal): > 100 µM; GI50 (SK-OV-3 ovarian): > 100 µM; TGI (SK-OV-3 ovarian): > 100 µM; GI50 (SK-MEL-5 melanoma): 35.3 µM; TGI (SK-MEL-5 melanoma): > 85.6 µM

Q: `CCOC(=O)c1c(-c2ccccc2)oc(=O)c(Cc2cccc3cccnc23)c1-c1ccccc1` was tested. Which TGI (SK-MEL-28 melanoma) did it give?
A: > 10 µM

Q: What about the TGI (HT29 colon) of the same molecule?
A: > 10 µM

Q: What about the TGI (PC-3 prostate) of the same molecule?
A: > 10 µM

Q: What about the TGI (UO-31 renal) of the same molecule?
A: > 10 µM

Q: What about the TGI (HOP-62 NSCLC) of the same molecule?
A: > 10 µM

Q: And the TGI (COLO 205 colon)?
A: > 10 µM

Q: And the TGI (SW-620 colon)?
A: > 10 µM

Q: What about the TGI (IGROV1 ovarian) of the same molecule?
A: > 10 µM

Q: And the TGI (OVCAR-5 ovarian)?
A: > 10 µM

Q: And the TGI (T-47D breast)?
A: > 10 µM

Q: What about the TGI (HS 578T breast) of the same molecule?
A: > 10 µM

Q: And the TGI (OVCAR-3 ovarian)?
A: > 10 µM

Q: And the TGI (OVCAR-4 ovarian)?
A: > 10 µM

Q: And the TGI (EKVX NSCLC)?
A: > 10 µM

Q: And the TGI (M14 melanoma)?
A: > 10 µM

Q: And the TGI (MCF7 breast)?
A: > 10 µM

Q: What about the TGI (MOLT-4 leukemia) of the same molecule?
A: > 10 µM

Q: What about the TGI (MALME-3M melanoma) of the same molecule?
A: > 10 µM

Q: And the TGI (NCI-H522 lung)?
A: > 10 µM

Q: And the TGI (K-562 leukemia)?
A: > 10 µM

Q: And the TGI (UACC-257 melanoma)?
A: > 10 µM

Q: What about the TGI (SF-295 CNS) of the same molecule?
A: > 10 µM

Q: And the TGI (LOX IMVI melanoma)?
A: > 10 µM

Q: What about the TGI (MDA-MB-231 breast) of the same molecule?
A: > 10 µM

Q: What about the TGI (HCC-2998 colon) of the same molecule?
A: > 10 µM

Q: And the TGI (KM12 colon)?
A: > 10 µM

Q: And the TGI (MDA-MB-435)?
A: > 10 µM

Q: What about the TGI (HCT-15 colon) of the same molecule?
A: > 10 µM

Q: And the TGI (HL-60(TB) leukemia)?
A: > 10 µM

Q: What about the TGI (SNB-75 CNS) of the same molecule?
A: > 10 µM

Q: And the TGI (TK-10 renal)?
A: > 10 µM

Q: And the TGI (SK-MEL-2 melanoma)?
A: > 10 µM

Q: What about the TGI (NCI/ADR-RES ovarian) of the same molecule?
A: > 10 µM

Q: What about the TGI (A498 renal) of the same molecule?
A: > 10 µM

Q: What about the TGI (HOP-92 NSCLC) of the same molecule?
A: > 10 µM

Q: What about the TGI (SF-539 CNS) of the same molecule?
A: > 10 µM

Q: And the TGI (BT-549 breast)?
A: > 10 µM

Q: What about the TGI (RPMI-8226 leukemia) of the same molecule?
A: > 10 µM

Q: What about the TGI (HCT-116 colon) of the same molecule?
A: > 10 µM

Q: And the TGI (CCRF-CEM leukemia)?
A: > 10 µM

Q: What about the TGI (NCI-H226 lung) of the same molecule?
A: > 10 µM

Q: And the TGI (ACHN renal)?
A: > 10 µM

Q: And the TGI (786-0 renal)?
A: > 10 µM

Q: And the TGI (UACC-62 melanoma)?
A: > 10 µM

Q: What about the TGI (NCI-H460 lung) of the same molecule?
A: > 10 µM

Q: What about the TGI (CAKI-1 renal) of the same molecule?
A: > 10 µM

Q: What about the TGI (DU-145 prostate) of the same molecule?
A: > 10 µM

Q: And the TGI (OVCAR-8 ovarian)?
A: > 10 µM

Q: What about the TGI (SN12C renal) of the same molecule?
A: > 10 µM

Q: And the TGI (A549 NSCLC)?
A: > 10 µM

Q: What about the TGI (NCI-H23 lung) of the same molecule?
A: > 10 µM

Q: What about the TGI (SR leukemia) of the same molecule?
A: > 10 µM

Q: What about the TGI (U251 CNS) of the same molecule?
A: > 10 µM

Q: And the TGI (SF-268 CNS)?
A: > 10 µM

Q: What about the TGI (SNB-19 CNS) of the same molecule?
A: > 10 µM

Q: And the TGI (RXF 393 renal)?
A: > 10 µM

Q: What about the TGI (SK-OV-3 ovarian) of the same molecule?
A: > 10 µM

Q: What about the TGI (SK-MEL-5 melanoma) of the same molecule?
A: > 10 µM
